From patent publication US20160206633A1, “dhS1P AND USE OF SAME AS AN ANTICANCER THERAPEUTIC AND IMMUNOMODULATOR” (Penn State Research Foundation, Inc., priority 2013, published 2016)

Columns and labels:
[1] = test system: isolated IMCs (GEMM colonies, multipotent myeloid progenitor cells); experiment: CFU-GEMM colony forming assay of isolated IMCs; format: cell-based, athymic nude mice; details: 5 μM, GEMM-supportive semi-solid media, 3 weeks of culture
Experimental: (A) Splenic IMCs (Gr-1+CD11b+, also defined as MDSCs: myeloid-derived suppressor cells) were isolated from MDA-MB-231 tumor-bearing athymic nude mice and exposed to BSA, S1P (5 μM), or dhS1P (5 μM). Following 24-hour culture incubation, cells were labeled with specific antibodies and analyzed by multicolor flow cytometry (red: IMCs; blue: possible B-cells). (B) Splenic IMCs were isolated from MDA-MB-231 tumor-bearing athymic nude mice and cultured (5×10^4 cells/mL) in GEMM-supportive semi-solid media with BSA, S1P (5 μM), or dhS1P (5 μM). GEMM colonies (multipotent myeloid progenitor cells) were visualized and counted after 3 weeks of culture. ANOVA, *p<0.01 compared to no treatment or BSA-treatment, ***p<0.001 compared to S1P-treatment, n≧3. (C) Splenic hematopoietic progenitors (Lineage-Sca-1+CD117+) were isolated from MDA-MB-231 tumor-bearing athymic nude mice and exposed to BSA, S1P (5 μM), or dhS1P (5 μM). Following 24-hour culture incubation, cells were labeled with specific antibodies and analyzed by multicolor flow cytometry. […]
Isolated IMCs from the spleens of tumor-bearing athymic nude mice were cultured (5×10^4 cells/mL) in GEMM-supportive complete (mouse) methylcellulose media (R&D Systems, Minneapolis, Minn.), according to the manufacturer's instructions, with BSA, S1P (5 μM), or dhS1P (5 μM). GEMM colonies were visualized and counted after 3 weeks of culture.

[2] = test system: splenic hematopoietic progenitors (Lineage-Sca-1+CD117+); experiment: Isolated splenic hematopoietic progenitors exposed to dhS1P, multicolor flow cytometry; format: cell-based, athymic nude mice; details: 5 μM, 24-hour culture
Experimental: (§1) (A) Splenic IMCs (Gr-1+CD11b+, also defined as MDSCs: myeloid-derived suppressor cells) were isolated from MDA-MB-231 tumor-bearing athymic nude mice and exposed to BSA, S1P (5 μM), or dhS1P (5 μM). Following 24-hour culture incubation, cells were labeled with specific antibodies and analyzed by multicolor flow cytometry (red: IMCs; blue: possible B-cells). (B) Splenic IMCs were isolated from MDA-MB-231 tumor-bearing athymic nude mice and cultured (5×10^4 cells/mL) in GEMM-supportive semi-solid media with BSA, S1P (5 μM), or dhS1P (5 μM). GEMM colonies (multipotent myeloid progenitor cells) were visualized and counted after 3 weeks of culture. ANOVA, *p<0.01 compared to no treatment or BSA-treatment, ***p<0.001 compared to S1P-treatment, n≧3. (C) Splenic hematopoietic progenitors (Lineage-Sca-1+CD117+) were isolated from MDA-MB-231 tumor-bearing athymic nude mice and exposed to BSA, S1P (5 μM), or dhS1P (5 μM). Following 24-hour culture incubation, cells were labeled with specific antibodies and analyzed by multicolor flow cytometry.
Splenocytes were harvested from tumor-bearing mice by mechanical disruption in red blood cell lysis buffer. Splenocytes were washed, and resuspended in PBS with Mouse BD Fc Block (1 μg per 1×10^6 splenocytes), and incubated for 15 minutes at 4° C. For IMC isolation, antibodies targeting Gr-1 (FITC) and CD11b (PE-Cy7) were added. […]

[3] = test system: Gr-1+CD11b+ MDSC-like cells from MaFIA mice; experiment: Lineage tracing: MDSC-like cells from tumor-bearing MaFIA mice exposed to dhS1P, flow cytometry; format: cell-based, MaFIA mice (C57BL/6J background); design: dose or concentration left out as unconfirmed
Excerpt: Gr-1+CD1 b+MDSC-like cells were isolated by high-speed cell sorting (85-95% purity) from the splenocytes of tumor-bearing MaFIA (Macrophage Fas-Induced Apoptosis) mice. These mice are on the C57BL/6J background and contain a transgene expressing both an inducible apoptosis feature as well as EGFP (enhanced green fluorescent protein). This transgene is expressed from the Csfr1 promoter (CD115), which restricts expression of the transgene to the myeloid lineage. Isolated MDSC-like cells were exposed to dhS1P ([…]) for 24 hours, and flow cytometry was performed to confirm both the disappearance of MDSC-like cells (Gr-1+CD11b+), and the appearance of a lymphocyte population (CD19+CD45R B220+). Lineage tracing using the EGFP feature of the transgene verified that dhS1P-induced lymphocytes (blue population) are EGFP negative and therefore not of myeloid-origin. This is in direct contrast with the EGFP positive MDSC-like cells (red population).

[4] = test system: splenic IMCs (Gr-1+CD11b+, MDSCs) from MDA-MB-231 tumor-bearing athymic nude mice; experiment: Isolated IMCs/MDSCs exposed in culture to dhS1P or S1P, multicolor flow cytometry; format: cell-based; details: 5 μM, 24-hour culture
Experimental: as §1
The effect of dhS1P was further investigated at the level of MDSC-like cells, which were reduced as a function of treatment. The effects of dhS1P were directly compared with those of S1P as to delineate a difference in their physiological roles. Tumor-expanded IMCs/MDSCs were isolated and exposed in culture to either dhS1P or S1P. […]

CCCCCCCCCCCCCCC[C@@H](O)[C@@H](N)COP(=O)(O)O [dhS1P, dihydrosphingosine-1-phosphate]
CFU-GEMM colony formation [1]: completely abrogated | CD19+CD45R B220+ cellular population from isolated hematopoietic progenitors [2]: mediated the expansion | Lymphocyte population (CD19+CD45R B220+) [3]: appearance | MDSC-like cells (Gr-1+CD11b+) [3]: disappearance | Population of cells displaying CD19 and CD45R B220 in isolated IMC culture [4]: promoted the expansion | Cells bearing the surface characteristics of IMCs/MDSCs (Gr-1+CD11b+) ([4]; normal culture conditions): completely ablated
